Measurements as given in US20230277505A1 (Arena Pharmaceuticals, Inc., priority 2003, published 2023).
Where two headings read alike, the source gives them in different places.

Tests used:
[1] = system: DOI-induced hypolocomotion in rats; assay: Attenuation of DOI-induced hypolocomotion in rats; type: in vivo, rat; settings: 50 μmol/kg p.o. 60 min before DOI 0.3 mg/kg s.c.
Protocol: In this example, compounds of the invention, such as Compound 1 and Compound 26, were tested for inverse agonist activity by determining whether these compounds could attenuate DOI-induced hypolocomotion in rats in a novel environment. DOI is a potent 5HT2A/2C receptor agonist that crosses the blood-brain barrier.
Male Sprague-Dawley rats (Harlan, San Diego, Calif.) weighing between 200-300 g were used for all tests. Rats were housed three to four per cage. These rats were naïve to experimental testing and drug treatment. Rats were handled one to three days before testing to acclimate them to experimental manipulation. Rats were fasted overnight prior to testing.
(R)-DOI HCl (C11H16INO2·HCl) was obtained from Sigma-Aldrich, and was dissolved in 0.9% saline. Compounds of the invention were synthesized at Arena Pharmaceuticals Inc. and were dissolved in 100% PEG400. […]
The “Motor Monitor” (Hamilton-Kinder, Poway, Calif.) was used for all activity measurement. This apparatus recorded rears using infrared photobeams. […]
In determining the effects of compounds of the invention on DOI-induced hypoactivity, animals were first injected with vehicle or the compound of the invention (50 μmol/kg) in their home cages. […] 10 min after DOI administration, animals were placed into the activity apparatus and rearing activity was measured for 10 minutes.
Results (total rears over 10 minutes) were analyzed by t-test. […]

5HT2A receptor = 5HT2A receptor (Macaca mulatta (Rhesus macaque), UniProt P50128); assay: Serotonin 5-HT2A receptor occupancy study in monkey (PET, 18F-altanserin); type: in vivo; settings: iv
[2] = Plasma drug concentration in the PET occupancy study; type: in vivo, rhesus monkey; settings: 0.5 mg/kg i.v.; after 8 hours
Protocol: The monkey was anesthetized by using ketamine (10 mg/kg) and was maintained using 0.7 to 1.25% isoflurane. Typically, the monkey had two i.v. lines, one on each arm. One i.v. line was used to administer the radioligand, while the other line was used to draw blood samples for pharmacokinetic data of the radioligand as well as the cold drugs. Generally, rapid blood samples were taken as the radioligand is administered which then taper out by the end of the scan. A volume of approximately 1 ml of blood was taken per time point, which was spun down, and a portion of the plasma was counted for radioactivity in the blood.
The results of both an 8 hour and 24 hour study are shown. The test compound was administered via i.v. infusion in 5.0 ml of 80% PEG400. For the 8 hour study, venous blood samples were drawn at 5 minutes post Compound 1 and 15 minutes before PET scan. For the 24 hour study, venous blood samples were drawn at 5 minutes post Compound 1 and 10 minutes before PET scan.

male Wistar rats = assay: Effect on delta power, sleep and wakefulness in rats (EEG/EMG); type: in vivo, rat; settings: oral gavage
Protocol: In this example, the effect of Compounds of the Invention, such as Compound 1 and Compound 26, on sleep and wakefulness was compared to the reference drug zolpidem. Drugs were administered during the middle of the light period (inactivity period).
Briefly, four compounds of the invention, including Compound 1 (1.0 mg/kg) and Compound 26 (1.4 mg/kg), were tested for their effects on sleep parameters and were compared to zolpidem (5.0 mg/kg, Sigma, St. Louis, Mo.) and vehicle control (80% Tween 80, Sigma, St. Louis, Mo.). A repeated measures design was employed in which each rat was to receive seven separate dosings via oral gavage. The first and seventh dosings were vehicle and the second through sixth were the test compounds and zolpidem given in counter-balanced order. Since all dosings were administered while the rats were connected to the recording apparatus, 60% CO2/40% O2 gas was employed for light sedation during the oral gavage process. Rats appeared fully recovered within 60 seconds following the procedure. A minimum of three days elapsed between dosings. […] Dosing typically occurred between 13:15 and 13:45 using a 24 hour notation. All dosing solutions were made fresh on the day of dosing. Following each dosing, animals were continuously recorded until lights out the following day (˜30 hours).
Animals were housed in a temperature controlled recording room under a 12/12 light/dark cycle (lights on at 7:00 am) and had food and water available ad libitum. Room temperature (24+2° C.), humidity (50+20% relative humidity) and lighting conditions were monitored continuously via computer. Drugs were administered via oral gavage as described above, with a minimum of three days between dosings. Animals were inspected daily in accordance with NIH guidelines. […]
EEG and EMG data were scored visually in 10 second epochs for waking (W), REMS, NREMS. Scored data were analyzed and expressed as time spent in each state per half hour. Sleep bout length and number of bouts for each state were calculated in hourly bins. […]

[3] = 24 months of treatment; patients; cited from earlier work
[4] = glaucoma patients; cited from earlier work

SMILES	DOI-induced hypolocomotion (total rears over 10 minutes) [1]	receptor occupancy at 0.5 mg/kg (5HT2A receptor; read-out: 5HT2A receptor occupancy, 0.5 mg/kg i.v., 8 hours following drug administration, cortical regions) [%]	receptor occupancy at 0.5 mg/kg (5HT2A receptor; read-out: 5HT2A receptor occupancy, 0.5 mg/kg i.v., 24 hours post-injection) [%]	test drug concentrations in plasma samples [2]	NREMS bout length (male Wistar rats; 1.0 mg/kg, second hour)	REMS bout length (male Wistar rats; Compound 1 1.0 mg/kg, Compound 26 1.4 mg/kg, fourth hour)	delta power during NREMS (male Wistar rats; Compound 1 1.0 mg/kg, Compound 26 1.4 mg/kg, second hour following dosing (15:00), vs vehicle)	urinary albumin excretion level [3]	IOP [4]
COc1ccc(NC(=O)Nc2ccc(Cl)cc2)cc1-c1c(Br)cnn1C [Compound 1, 1-[3-(4-Bromo-2-methyl-2H-pyrazol-3-yl)-4-methoxy-phenyl]-3-(4-Chloro-phenyl)-urea]	attenuated DOI-induced hypolocomotion	~90	~80	no measurable test drug concentrations	significantly increased	significantly increased	significantly increased		
COc1cccc(CCc2ccccc2OCC(CN(C)C)OC(=O)CCC(=O)O)c1 (stereo not drawn) [sarpogrelate]								significantly reduced	significantly lower
